According to US7935335B2, “Strains belonging to the genus Paenibacillus and method of controlling plant disease by using these strains or culture thereof” (Kaken Pharmaceutical Co., Ltd., priority 2004, dated 2011):

Key:
Type in all cases: in vivo
Details in all cases: 20 ppm
[1] = test system: cucumber bacterial blight bacterium (Pseudomonas syringae pv. lachrymans); experiment: Evaluation Example 3: control effect on cucumber bacterial blight, plant foot drench
Method: Each of plastic pots was filled with horticultural compost and sown with cucumber (cultivar: Suyo), followed by growing in a greenhouse for 20 days. The cucumber young seedling having a developed second true leaf was subjected to plant foot drench treatment with the formulation obtained in the above-mentioned preparation example, in a proportion of 5 mL per seedling. After the pots were allowed to stand in a glass house at 25° C. for 3 days, the plants were inoculated with a suspension (1×10^8 CFU/mL) of cucumber bacterial blight bacterium (Pseudomonas syringae pv. lachrymans) in distilled water by spraying. The pots were allowed to stand in a dark moist chamber at 25° C. for 24 hours and then in a glass house at 25° C. for 7 days to cause the disease. Lesions in each leaf were counted and the protective value was calculated from the number of the lesions by the following equation to make a comparison with respect to control effect. Protective value={1−(number of lesions on treated plot/number of lesions on untreated plot)}×100

[2] = test system: cucumber anthracnose fungus (Colletotrichum orbiculare); experiment: Test Example 2: control effect of purified spores on cucumber anthracnose
Description: Each of plastic pots was filled with horticultural compost and sown with cucumber (cultivar: 15 Suyo), followed by growing in a greenhouse for 20 days. The cucumber young seedling having a developed second true leaf was subjected to foliage application treatment with a spore preparation sample of strain BS-0105 obtained by formulating the bacterium of the present invention produced by the method described in each of Production Examples 4, 5, 6 and 7, by the method described in Formulation Example 1, so that the proportion of cells might be 2×10^7 CFU/mL. After the pots were allowed to stand in a dark moist chamber at 25° C. for 24 hours and then in a glass house at 25° C. for 4 days, the plants were inoculated with a suspension of cucumber anthracnose fungus conidia in distilled water (Colletotrichum orbiculare, 1×10^6 spores/ml) by spraying. The pots were allowed to stand in a dark moist chamber at 25° C. for 24 hours and then in a glass house at 25° C. for 7 days to cause the disease. Lesions in each leaf were counted and the protective value was calculated from the number of the lesions by the following equation to make a comparison with respect to control effect. Protective value={1−(number of lesions on treated plot/number of lesions on untreated plot)}×100

[3] = test system: strawberry anthracnose fungus (Glomerella cigulata); experiment: Test Example 4: control effect of purified spores on strawberry anthracnose
Method: Strawberry seedlings (cultivar: Akihime) cultivated in plastic pots and having about 10 developed leaflets were subjected to foliage application treatment with a spore preparation sample of strain BS-0105 obtained by formulating the bacterium of the present invention produced by the method described in Production Example 5, by the method described in Formulation Example 2, so that the proportion of cells might be 2×10^7 CFU/mL. After the pots were allowed to stand in a dark moist chamber at 25° C. for 24 hours and then in a glass house at 25° C. for 3 days (or 1 day in the case of Amister 20 flowable), the plants were inoculated with a suspension of strawberry anthracnose fungus conidia in distilled water (Glomerella cigulata, 2×10^6 spores/ml) by spraying. The pots were allowed to stand in a dark moist chamber at 25° C. for 24 hours and then in a glass house at 25° C. for 14 days to cause the disease. The disease severity was calculated by the following equation and the protective value was calculated from the disease severity values by the following equation to make a comparison with respect to control effect. […]

SMILES: CSC(=O)c1cccc2nnsc12 [Acibenzolar-S-methyl, S-methyl 1,2,3-benzothiazole-7-carboxylate]
- Number of lesions per leaf [1]: 137.8 b
- Protective value [1]: 78.8
- First true leaf Number of lesions per leaf [2]: 0
- First true leaf Protective value [2]: 100
- Second true leaf Number of lesions per leaf [2]: 5.5
- Second true leaf Protective value [2]: 99
- Disease severity [3]: 10.9 b
- Protective value [3]: 85.1
